From patent US5225438A, “Aryl derivatives” (Imperial Chemical Industries PLC, priority 1990, dated 1993)

What was measured:
5-LO [1] = biological target: T1, 5-LO (Homo sapiens, UniProt P09917); test: Test a) in vitro human blood challenged with calcium ionophore A23187, LTB4 radioimmunoassay; assay type: cell-based; details: heparinised human blood
T1 construct: incubating a test compound with heparinised human blood, prior to challenge with the calcium ionophore A23187; endogenous in cells; host or cells: blood cells in heparinised human whole blood
T1 sequence (P09917 1-674): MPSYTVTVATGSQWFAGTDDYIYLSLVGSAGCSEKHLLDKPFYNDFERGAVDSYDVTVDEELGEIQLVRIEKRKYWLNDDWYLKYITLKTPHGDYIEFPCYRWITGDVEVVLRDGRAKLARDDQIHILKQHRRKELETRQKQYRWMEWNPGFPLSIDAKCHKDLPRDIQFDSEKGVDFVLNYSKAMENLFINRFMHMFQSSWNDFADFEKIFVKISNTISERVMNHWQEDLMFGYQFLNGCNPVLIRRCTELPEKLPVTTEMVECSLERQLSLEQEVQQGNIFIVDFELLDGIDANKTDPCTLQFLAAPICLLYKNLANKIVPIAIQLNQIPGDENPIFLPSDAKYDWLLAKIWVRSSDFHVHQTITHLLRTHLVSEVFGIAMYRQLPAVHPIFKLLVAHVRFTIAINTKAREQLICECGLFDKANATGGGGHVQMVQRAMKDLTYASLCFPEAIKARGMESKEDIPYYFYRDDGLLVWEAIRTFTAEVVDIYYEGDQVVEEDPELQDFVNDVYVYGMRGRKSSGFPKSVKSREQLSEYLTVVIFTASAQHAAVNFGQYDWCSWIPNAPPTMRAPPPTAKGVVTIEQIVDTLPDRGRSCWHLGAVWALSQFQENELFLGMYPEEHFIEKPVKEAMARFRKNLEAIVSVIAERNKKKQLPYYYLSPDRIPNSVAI
Description: a) An in vitro assay system involving incubating a test compound with heparinised human blood, prior to challenge with the calcium ionophore A23187 and then indirectly measuring the inhibitory effects on 5-LO by assaying the amount of LTB4 using specific radioimmunoassays described by Carey and Forder (Prostaglandins, Leukotrienes Med., 1986, 22, 57; Prostaglandins, 1984, 28, 666; Brit. J. Pharmacol., 1985, 84, 34P) which involves the use of a protein-LTB4 conjugate produced using the procedure of Young et alia (Prostaglandins, 1983, 26(4), 605-613). The effects of a test compound on the enzyme cyclooxygenase (which is involved in the alternative metabolic pathway for arachidonic acid and gives rise to prostaglandins, thromboxanes and related metabolites) may be measured at the same time using the specific radioimmunoassay for thromboxane B2 (TxB2) described by Carey and Forder (see above). This test provides an indication of the effects of a test compound against 5-LO and also cyclooxygenase in the presence of blood cells and proteins. It permits the selectivity of the inhibitory effect on 5-LO or cyclooxygenase to be assessed.

5-LO [2] = biological target: T2, 5-LO (Rattus norvegicus, UniProt P12527); test: Test c) in vivo zymosan-induced liberation of LTB4 within an air pouch of male rats; details: 3 h; test c), oral
T2 construct: liberation of LTB4 induced by zymosan within an air pouch generated within the subcutaneous tissue of the back of male rats; from tissue; host or cells: live male rats, zymosan-inflamed subcutaneous air pouch (endogenous enzyme)
T2 sequence (P12527 1-673): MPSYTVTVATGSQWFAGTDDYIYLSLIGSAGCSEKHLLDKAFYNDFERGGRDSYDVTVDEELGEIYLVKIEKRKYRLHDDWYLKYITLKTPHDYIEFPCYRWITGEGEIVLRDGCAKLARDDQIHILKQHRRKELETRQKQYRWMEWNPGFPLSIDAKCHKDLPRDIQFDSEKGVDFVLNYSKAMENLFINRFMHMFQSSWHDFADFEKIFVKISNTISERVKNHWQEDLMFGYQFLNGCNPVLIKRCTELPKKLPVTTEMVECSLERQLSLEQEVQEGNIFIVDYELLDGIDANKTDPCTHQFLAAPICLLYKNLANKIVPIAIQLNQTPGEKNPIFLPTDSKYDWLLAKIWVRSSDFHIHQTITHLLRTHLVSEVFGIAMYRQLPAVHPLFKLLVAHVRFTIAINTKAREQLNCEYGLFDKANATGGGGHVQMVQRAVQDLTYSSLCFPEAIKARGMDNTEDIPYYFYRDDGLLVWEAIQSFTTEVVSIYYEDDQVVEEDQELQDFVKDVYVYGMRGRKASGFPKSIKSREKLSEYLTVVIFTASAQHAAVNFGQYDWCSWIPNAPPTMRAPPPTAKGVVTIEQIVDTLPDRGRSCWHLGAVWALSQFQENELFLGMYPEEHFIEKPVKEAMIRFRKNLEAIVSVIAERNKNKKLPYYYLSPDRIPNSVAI
Description: c) An in vivo system involving measuring the effects of a test compound administered orally against the liberation of LTB4 induced by zymosan within an air pouch generated within the subcutaneous tissue of the back of male rats. The rats are anaesthetised and air pouches are formed by the injection of sterile air (20 ml). A further injection of air (10 ml) is similarly given after 3 days. At 6 days after the initial air injection the test compound is administered (usually orally as the suspension produced when a solution of the test compound in dimethylsulphoxide is added to hydroxypropylmethylcellulose), followed by the intrapouch injection of zymosan (1 ml of a 1% suspension in physiological saline). After 3 hours the rats are killed, the air pouches are lavaged with physiological saline, and the specific radioimmunoassay described above is used to assay LTB4 in the washings. This test provides an indication of inhibitory effects against 5-LO in an inflammatory milieu.

IC50 (5-LO [1]) [nM]	ED50 (5-LO [2]) [mg/kg]	Structure (SMILES)
40	2	COC1(c2cccc(Sc3ccc(Cc4ccc(F)cc4)cc3)c2)CCOCC1 [4-[3-(4-(4-fluorobenzyl)phenylthio)phenyl]-4-methoxytetrahydropyran]
140	1	COC1(c2cc(F)cc(Sc3ccc(C(F)(F)c4ccc(F)cc4)cc3)c2)CCOCC1 [4-[5-fluoro-3-(4-(4-fluoro-alpha,alpha-difluorobenzyl)phenylthio)phenyl]-4-methoxytetrahydropyran]
